Columns and labels:
[1] = octanol/water
physchem = conditions: octanol/water

## N#Cc1cccc(O)c1
[1]
  Log k' w: 1.557
physchem
  logP: 1.7

## COc1ccc(CO)cc1
[1]
  Log k' w: 0.815
physchem
  logP: 1.1

## COc1ccc(N)cc1
[1]
  Log k' w: 0.603
physchem
  logP: 0.95

## CC12CCC(C(=O)C1=O)C2(C)C (centres undefined)
[1]
  Log k' w: 1.42
physchem
  logP: 1.52

## Oc1cccc(Cl)c1
[1]
  Log k' w: 2.391

## Oc1ccc(F)cc1
[1]
  Log k' w: 1.575

## Oc1ccc(I)cc1
[1]
  Log k' w: 2.795

## O=[N+]([O-])c1ccc(Cl)cc1
[1]
  Log k' w: 2.165
physchem
  logP: 2.3

## N#Cc1cccc([N+](=O)[O-])c1
[1]
  Log k' w: 1.014
physchem
  logP: 1.17

## Oc1cccc(F)c1
[1]
  Log k' w: 1.749

## Nc1cccc2ccccc12
[1]
  Log k' w: 2.203

## COc1ccc([N+](=O)[O-])cc1
[1]
  Log k' w: 1.857

## Oc1cccc(C(F)(F)F)c1
[1]
  Log k' w: 2.847

## CCc1cccc(O)c1
[1]
  Log k' w: 2.228
physchem
  logP: 2.4

## Cc1ccc(N)cc1
[1]
  Log k' w: 1.405

## Nc1cccc(F)c1
[1]
  Log k' w: 1.225
physchem
  logP: 1.3

## CC(=O)Nc1ccc(Br)cc1
[1]
  Log k' w: 2.293
physchem
  logP: 2.29

## COc1cccc(O)c1 [1-hydroxy-3-methoxybenzene]
[1]
  Log k' w: 1.254

## Nc1ccc(Br)cc1 [4-BROMOANILINE]
[1]
  Log k' w: 2.043

## Nc1ccc(Cl)cc1 [4-CHLOROANILINE]
[1]
  Log k' w: 1.855
physchem
  logP: 1.83

## CC(=O)c1ccccc1 [ACETOPHENONE]
[1]
  Log k' w: 1.359

## COc1ccccc1 [ANISOLE]
[1]
  Log k' w: 2.006

## c1ccc(/N=N/c2ccccc2)cc1 [AZOBENZENE]
[1]
  Log k' w: 3.961
physchem
  logP: 3.82

## N#Cc1ccccc1 [BENZONITRILE]
[1]
  Log k' w: 1.279

## c1ccc2[nH]ccc2c1 [INDOLE]
[1]
  Log k' w: 2.014
physchem
  logP: 2.14

## COc1ccc(O)cc1 [MEQUINOL]
[1]
  Log k' w: 1.004

## O=[N+]([O-])c1ccccc1 [NITROBENZENE]
[1]
  Log k' w: 1.633

## Oc1ccc(Cl)cc1 [PARACHLOROPHENOL]
[1]
  Log k' w: 2.31

## Oc1ccccc1 [PHENOL]
[1]
  Log k' w: 1.251

## Oc1cccc(O)c1 [RESORCINOL]
[1]
  Log k' w: 0.544

## Cc1ccc(C(C)C)c(O)c1 [THYMOL]
[1]
  Log k' w: 3.092

## Cc1ccc(O)cc1 [p-CRESOL]
[1]
  Log k' w: 1.759

Source: ChEMBL document CHEMBL1123974, “A comprehensive method for determining hydrophobicity constants by reversed-phase high-performance liquid chromatography” (J Med Chem, 1988)
